# From patent publication US9708274B2, “Sulfoximine substituted quinazolines for pharmaceutical compositions” (EVOTEC INTERNATIONAL GMBH, priority 2013, dated 2017)
# Columns and labels:
# [1] = molecular target: MNK1a (Homo sapiens (Human), UniProt Q9BUB5); test: MNK1 in vitro kinase assay (Assay 3), Z'-LYTE; format: biochemical; details: compound concentration of 1 μM
# Description: C. MNK1 In Vitro Kinase Assay (Assay 3)
# MNK1 Data can be obtained from the MNK1 Z′-LYTE® assay. The MNK1 Z′-LYTE® screening protocol and assay conditions are also described on www.invitrogen.com.
# The assay is described as follows:
# The Z′-LYTE® biochemical assay employs a fluorescence-based, coupled-enzyme format and is based on the differential sensitivity of phosphorylated and non-phosphorylated peptides to proteolytic cleavage. The peptide substrate is labeled with two fluorophores—one at each end—that make up a FRET pair.
# In the primary reaction, the kinase transfers the gamma-phosphate of ATP to a single tyrosine, serine or threonine residue in a synthetic FRET-peptide. In the secondary reaction, a site-specific protease recognizes and cleaves non-phosphorylated FRET-peptides. Phosphorylation of FRET-peptides suppresses cleavage by the Development Reagent. […] A ratiometric method, which calculates the ratio (the Emission Ratio) of donor emission to acceptor emission after excitation of the donor fluorophore at 400 nm, is used to quantitate reaction progress, as shown in the equation below.
# ASSAY SETUP: The inhibition of kinase activity of MNK1a was assessed using pre-activated GST-MNK1a. […]
# 9. Read on fluorescence plate reader and analyze the data […]
# [2] = system: cell culture cells, transfected with MNK2 (MNK2a or MNK2b) or MNK1; details: addition to cell culture cells transfected with MNK2 (MNK2a or MNK2b) or MNK1; cited from earlier work
# [3] = molecular target: MNK2a (Homo sapiens (Human), UniProt Q9HBH9); test: MNK2a in vitro kinase assay (Assay 2), ADP-Glo; format: biochemical; details: read-out: MNK2 IC50
# Experimental: The white, 384-well OptiPlate F plates were purchased from PerkinElmer. The ADP-Glo Kinase Assay (including ultra pure ATP) was purchased from Promega (V9103). Activated MNK2a was obtained as described in WO2011/104340. […] All other materials were of highest grade commercially available. Compounds are tested in either serial dilutions or single dose concentrations. The compound stock solutions are 10 mM in 100% DMSO The serial compound dilutions are prepared in 100% DMSO followed by 1:27.3 intermediate dilution in assay buffer. The final DMSO concentration in assay will be <3%.
# In the 384-well plates 3 μl of test compound from the intermediate dilution is mixed with 4 μl of the activated MNK2 enzyme (final concentration of 10 nM) and 4 μl of the peptide (final concentration of 25 μM)/ultra pure ATP (final concentration of 20 μM), all dissolved in assay buffer. This step is followed by an incubation time of 90 min, then 10 μl of ADP Glo reagent are added, followed by 40 min of incubation. Then 20 μl of kinase detection reagent are admixed. The plates are sealed and after an incubation period of 30 min, the luminescence signal is measured in an Envision reader to determine the amount of produced ADP. All incubation steps are performed at room temperature. […]
# IC50 values based on dose response curves are calculated with the AssayExplorer software.
# Chain of MNK2a (Q9HBH9 whole entry): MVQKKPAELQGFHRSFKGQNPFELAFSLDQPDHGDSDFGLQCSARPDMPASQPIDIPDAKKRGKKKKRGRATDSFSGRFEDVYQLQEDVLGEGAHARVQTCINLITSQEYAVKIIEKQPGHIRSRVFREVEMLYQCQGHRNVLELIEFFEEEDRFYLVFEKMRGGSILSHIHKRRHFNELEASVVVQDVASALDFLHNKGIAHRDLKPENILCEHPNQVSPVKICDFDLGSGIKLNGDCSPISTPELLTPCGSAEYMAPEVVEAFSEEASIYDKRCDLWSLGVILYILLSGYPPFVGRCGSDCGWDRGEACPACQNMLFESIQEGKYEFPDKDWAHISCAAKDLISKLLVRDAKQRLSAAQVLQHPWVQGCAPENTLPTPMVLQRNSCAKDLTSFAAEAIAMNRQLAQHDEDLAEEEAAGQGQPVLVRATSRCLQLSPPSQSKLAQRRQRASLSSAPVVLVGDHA
# Chain of MNK1a (Q9BUB5 other isoform, or with tags, fused parts or gaps): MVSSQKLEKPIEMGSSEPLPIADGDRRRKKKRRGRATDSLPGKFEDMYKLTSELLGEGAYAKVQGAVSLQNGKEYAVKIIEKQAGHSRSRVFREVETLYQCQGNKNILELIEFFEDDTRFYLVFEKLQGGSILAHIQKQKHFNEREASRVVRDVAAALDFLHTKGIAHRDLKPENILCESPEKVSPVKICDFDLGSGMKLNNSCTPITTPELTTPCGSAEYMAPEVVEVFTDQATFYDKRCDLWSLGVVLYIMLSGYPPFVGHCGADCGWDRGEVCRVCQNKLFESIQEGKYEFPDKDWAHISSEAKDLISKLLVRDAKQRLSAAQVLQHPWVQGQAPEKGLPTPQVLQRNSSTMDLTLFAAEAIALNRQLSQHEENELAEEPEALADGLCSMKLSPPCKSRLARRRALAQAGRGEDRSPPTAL
compound,measurement,setting,value
C[C@H](NC(=O)[C@@H](C)Oc1cc(F)ccc1Nc1ncnc2cc(N=S3(=O)CCC3)cc(F)c12)C(F)(F)F [Example 4.136],MNK1 % INH,[1],93%
Nc1ncnc2n[nH]c(Nc3ccc(F)cc3)c12 [CGP57380],reduction of phosphorylated eIF4E,[2],strong reduction of phosphorylated eIF4E
C[C@@H](Oc1cc(F)ccc1Nc1ncnc2cc(N=S3(=O)CCC3)cc(F)c12)C(=O)NCCC(F)(F)F [Example 4.108],IC50,[3],2 nM
